Laboratory results: US7071165B2, “LHRH antagonist peptides” (Indiana University Research and Technology Corporation, priority 1995, dated 2006)
Where a name gives a salt, the structure may show the parent alone. Starred links: 1 amine or outer side, 2 acyl side, 3 side chain; linkers in the order of their positions; H or OH if unused. Non-standard residues stand in square brackets, D forms with d. Residues, ends and D or L forms follow the SMILES beside them. *: point of attachment. X2 = O=C([C@@H](Cc1ccc[n+](Cc2ccccc2)c1)N[*:1])[*:2]; dPhe(4-Cl) = N[C@H](Cc1ccc(Cl)cc1)C(=O)O; X3 = C[S+](C)CC[C@@H](N[*:1])C(=O)[*:2]; X4 = C[S+](C)CC[C@H](N[*:1])C(=O)[*:2]; d2Nal = N[C@H](Cc1ccc2ccccc2c1)C(=O)O; Lys(iPr) = CC(C)NCCCC[C@H](N)C(=O)O; NMeY = CN[C@@H](Cc1ccc(O)cc1)C(=O)O; d3Pal = N[C@H](Cc1cccnc1)C(=O)O; NHCH2CH2SO3H = O=S(=O)(O)CCN*; X1 = O=C(c1ccc[n+]([O-])c1)*; Sar = CNCC(=O)O

Key:
[1] = test system: rat mast cells; test: Histamine release assay, rat mast cells
Description: The term “histamine-releasing activity”, as used herein, refers to the tendency of a compound to release histamine when administered to a subject. The histamine-releasing activity of a compound can be measured with an in vitro assay (described in more detail, infra). […] Histamine-releasing activity was assayed by the method described in U.S. Pat. No. 4,851,385 to Roeske. Briefly, a suspension of rat mast cells was added to increasing concentrations of an LHRH antagonist peptide and incubated for 15 minutes at 37° C. The buffer contained 25 mM PIPES, pH 7.4, NaCl (119 mM), KCl (5 mM), NaOH (40 mM) glucose (5.6 mM), CaCl2 (1 mM) and 0.1% bovine serum albumin.

[2] = test system: ovulation in female rats; test: Anti-ovulatory activity (AOA) in vivo assay in rats; set-up: species or system rat; conditions: for AO activity (AOA), in words: rat, in vivo
Description: As used herein, “LHRH antagonist peptide” is intended to include peptides and peptide analogs which inhibit LHRH activity (i.e., has “LHRH antagonist activity”) in vivo or in vitro. Candidate LHRH antagonist peptides can be assayed, for example, in the animal model described in Corbin and Beattie, Endocrine Res. Commun. 2:1 (1975) (and see infra). In this assay, the LHRH antagonistic activity of a candidate compound is assayed by measuring the antiovulatory activity (AOA) of the compound in rats.
Anti-ovulatory activity (AOA) was measured by an in vivo assay in rats, as described in Corbin and Beattie, Endocrine Res. Commun. 2:1 (1975). In brief, female rats are injected with a candidate LHRH antagonist on the day of proestrus; in general, the candidate LHRH antagonist was dissolved in 0.1% DMSO. The ability of the candidate peptide to inhibit ovulation is measured by determining the number of rats which ovulate. A candidate peptide is considered to have LHRH antagonist qualities if it inhibits ovulation in at least 50% of the treated rats at a dose of 5 μg per rat. Preferred LHRH antagonists inhibit ovulation in at least 50% of rats at a dose of 2 μg per rat, more preferably at a dose of […], and still more preferably at a dose of 0.5 μg per rat.

[3] = test system: ovulation in female rats; test: as above; conditions: dose 0.5 μg per rat
[4] = rat mast cells, 15 minutes at 37° C.

| Molecule | Histamine-releasing activity, in words [1] | Histamine release ED50 [1, 4] | AO activity (AOA): rats which ovulate / rats treated [3] | AO activity (AOA): rats which ovulate / rats treated ([2]; dose 1 μg per rat) | further results |
| --- | --- | --- | --- | --- | --- |
| CC(=O)N[C@H](Cc1ccc2ccccc2c1)C(=O)N[C@H](Cc1ccc(Cl)cc1)C(=O)N[C@H](Cc1cccnc1)C(=O)N[C@@H](CO)C(=O)N[C@@H](Cc1ccc(O)cc1)C(=O)N[C@H](CC(N)=O)C(=O)N[C@@H](CC(C)C)C(=O)N[C@@H](CCCCNC(C)C)C(=O)N1CCC[C@H]1C(=O)N[C@H](C)C(N)=O [Compound 3342, Ac-D-Nal^1,4-Cl-D-Phe^2, D-Pal^3, D-Asn^6-Lys(iPr)^8, D-Ala^10-LHRH.TFA] (Ac-[d2Nal][dPhe(4-Cl)][d3Pal]SY[dN]L[Lys(iPr)]P[dA]-NH2) | very low histamine release | – | – | – | – |
| CC(=O)N[C@H](Cc1ccc2ccccc2c1)C(=O)N[C@H](Cc1ccc(Cl)cc1)C(=O)N[C@H](Cc1cccnc1)C(=O)N[C@@H](CO)C(=O)N[C@@H](Cc1ccc(O)cc1)C(=O)N[C@@H](C(=O)N[C@@H](CC(C)C)C(=O)N[C@@H](CCCCNC(C)C)C(=O)N1CCC[C@H]1C(=O)N[C@H](C)C(N)=O)[C@H](C)O [Compound 3343, Ac-D-Nal^1,4-Cl-D-Phe^2, D-Pal^3, D-Thr^6-Lys(iPr)^8, D-Ala^10-LHRH.TFA] (Ac-[d2Nal][dPhe(4-Cl)][d3Pal]SY[dT]L[Lys(iPr)]P[dA]-NH2) | very low histamine release | – | – | – | – |
| CC(=O)N[C@H](Cc1ccc2ccccc2c1)C(=O)N[C@H](Cc1ccc(Cl)cc1)C(=O)N[C@H](Cc1cccnc1)C(=O)N[C@@H](CO)C(=O)N[C@@H](Cc1ccc(O)cc1)C(=O)N[C@H](CCC(=O)NCCS(=O)(=O)O)C(=O)N[C@@H](CC(C)C)C(=O)N[C@@H](CCCCNC(C)C)C(=O)N1CCC[C@H]1C(=O)N[C@H](C)C(N)=O [Compound 3361, Ac-D-Nal^1,4-Cl-D-Phe^2, D-Pal^3, D-Glu(Taurine)^6-Lys(iPr)^8, D-Ala^10-LHRH.TFA] (Ac-[d2Nal][dPhe(4-Cl)][d3Pal]SY[dE](NHCH2CH2SO3H)L[Lys(iPr)]P[dA]-NH2) | very low histamine release | – | – | – | – |
| CC(=O)N(C)CC(=O)N[C@H](Cc1ccc(Cl)cc1)C(=O)N[C@H](Cc1ccc2ccccc2c1)C(=O)N[C@@H](CO)C(=O)N[C@@H](Cc1ccc(O)cc1)C(=O)N[C@H](Cc1ccc[n+](Cc2ccccc2)c1)C(=O)N[C@@H](CC(C)C)C(=O)N[C@@H](CCCCNC(C)C)C(=O)N1CCC[C@H]1C(=O)N[C@H](C)C(N)=O [Compound 3763, Ac-Sar^1,4-Cl-D-Phe^2, D-Nal^3, D-Pal(Bzl)^6, Lys(iPr)^8, D-Ala^10-LHRH.2TFA] (Ac-[Sar][dPhe(4-Cl)][d2Nal]SY[X2]L[Lys(iPr)]P[dA]-NH2) | very little histamine-releasing activity | – | – | – | – |
| CC(=O)N[C@H](Cc1ccc2ccccc2c1)C(=O)N[C@H](Cc1ccc(Cl)cc1)C(=O)N[C@H](Cc1cccnc1)C(=O)N[C@@H](CO)C(=O)N(C)[C@@H](Cc1ccc(O)cc1)C(=O)N[C@H](CCCCNC(=O)c1ccc[n+]([O-])c1)C(=O)N[C@@H](CC(C)C)C(=O)N[C@@H](CCCCNC(C)C)C(=O)N1CCC[C@H]1C(=O)N[C@H](C)C(N)=O [Compound 3828, Ac-D-Nal^1,4-Cl-D-Phe^2, D-Pal^3, N-Me-Tyr^5, D-Lys(Onic)^8, Lys(iPr)^8, D-Ala^10-LHRH.TFA] (Ac-[d2Nal][dPhe(4-Cl)][d3Pal]S[NMeY][dK](X1)L[Lys(iPr)]P[dA]-NH2) | low histamine releasing activity | – | – | – | – |
| CC(=O)N[C@H](Cc1ccc2ccccc2c1)C(=O)N[C@H](Cc1ccc(Cl)cc1)C(=O)N[C@H](Cc1c[nH]c2ccccc12)C(=O)N[C@@H](CO)C(=O)N[C@@H](Cc1ccc(O)cc1)C(=O)N[C@H](CC[S+](C)C)C(=O)N[C@@H](CC(C)C)C(=O)N[C@@H](CC[S+](C)C)C(=O)N1CCC[C@H]1C(=O)N[C@H](C)C(N)=O [Compound 3925, Ac-D-Nal^1,4-Cl-D-Phe^2, D-Trp^3, D-Met(S^+Me)^6, Met(S^+Me)^8, D-Ala^10-LHRH.2TFA] (Ac-[d2Nal][dPhe(4-Cl)][dW]SY[X3]L[X4]P[dA]-NH2) | low histamine release | – | – | – | – |
| Ac-D-(or L)-Ada-Ala^1, 4-Cl-D-Phe^2, D-Pal^3, D-Cit^6-Lys(iPr)^8, D-Ala^10-LHRH.TFA [Compound 3368] | – | 34 µg/mL | – | – | AO activity (AOA): rats which ovulate / rats treated ([2]; dose 5 μg per rat): 5/8@5 μg |
| Ac-D-Nal^1, 4-Cl-D-Phe^2, D-Pal^3, 4-Cl-Phe^5, D-Pal(iPr)^6, Lys(iPr)^8, D-Ala^10-LHRH.2TFA [Compound 3851] | – | – | 6/8@0.5 | 0/8@1.0 | Histamine release ED50 ([1]; footnote a: run with Nal arg reference 0.11): 4.1 µg/mL; Histamine release ED50 ([1]; footnote b: run with Nal arg reference 0.14): 5.4 µg/mL; AO activity (AOA), in words [2]: unexpectedly active |
| Ac-D-Nal^1, 4-Cl-D-Phe^2, D-Pal^3, D-Arg^6, Met(S^+Me)^8, D-Ala^10-LHRH.2TFA [Compound 3983] | – | – | 8/8@0.5 | 0/8@1.00 | Histamine release ED50 ([1]; footnote g: run with Nal arg reference 0.1): 5.35 µg/mL; Histamine release ED50 ([1]; footnote h: run with Nal arg reference 0.02): 1.32 µg/mL; AO activity (AOA), in words [2]: high AOA |
| Ac-D-Nal^1, 4-Cl-D-Phe^2, D-Pal^3, D-Cit^6-Lys(iPr)^8, Pip^9-D-Ala^10-LHRH.TFA [Compound 3344] | – | 32 µg/mL | – | 9/10@1 μg | – |
| Ac-D-Nal^1, 4-Cl-D-Phe^2, D-Pal^3, D-Cit^6-Lys(iPr)^8, Pip^9-LHRH.TFA [Compound 3363] | – | 25 µg/mL | – | 6/8@1 μg | – |
| Ac-D-Nal^1, 4-Cl-D-Phe^2, D-Pal^3, D-Cit^6-Lys(iPr)^8, ProNHEt^9-des-Gly^10-LHRH.TFA [Compound 3365] | – | 24 µg/mL | – | – | – |
| Ac-D-Nal^1, 4-Cl-D-Phe^2, D-Pal^3, D-Cit^6-Lys(iPr)^8-LHRH.TFA [Compound 3362] | – | 22 µg/mL | – | 4/8@1 μg | – |
| Ac-D-Nal^1, 4-Cl-D-Phe^2, D-Pal^3, D-Lys(Imdac)^6, Lys(iPr)^8, D-Ala^10-LHRH.TFA [Compound 3741] | – | – | 6/8@0.5 | 1/8@1.0 | AO activity (AOA), in words [2]: good AO activity |
| Ac-D-Nal^1, 4-Cl-D-Phe^2, D-Pal^3, D-Lys(OTac)^6, Lys(iPr)^8, D-Ala^10-LHRH.TFA [Compound 3508] | – | – | 6/8@0.5 μg | 0/8@1 μg | – |
| Ac-D-Nal^1, 4-Cl-D-Phe^2, D-Pal^3, D-Lys(Ppic)^6, Lys(iPr)^8, D-Ala^10-LHRH.TFA [Compound 3760] | – | – | 7/8@0.5 | 1/8@1.0 | AO activity (AOA), in words [2]: good AO activity |
| Ac-D-Nal^1, 4-Cl-D-Phe^2, D-Pal^3, D-Lys(iPrPic)^6, Lys(iPr)^8, D-Ala^10-LHRH.TFA [Compound 3438] | – | 5.6 µg/mL | – | 2/8@1 μg | – |
| Ac-D-Nal^1, 4-Cl-D-Phe^2, D-Pal^3, D-Phe(4-NO2)^6-Lys(iPr)^8, D-Ala^10-LHRH.TFA [Compound 3364] | – | 14 µg/mL | – | 6/8@1 μg | – |
| Ac-D-Nal^1, 4-Cl-D-Phe^2, D-Pal^3, His^5D-Pal(iPr)^6, Lys(iPr)^8, D-Ala^10-LHRH.2TFA [Compound 3982] | – | – | – | 8/8@1.00 | Histamine release ED50 ([1]; footnote c: run with Nal arg reference 0.28): 53 µg/mL; Histamine release ED50 ([1]; footnote d: run with Nal arg reference 0.11): 33 µg/mL |
| Ac-D-Nal^1, 4-Cl-D-Phe^2, D-Pal^3, Pal^5, D-Pal(iPr)^6, Lys(iPr)^8, D-Ala^10-LHRH.TFA [Compound 3430] | – | 10 µg/mL | – | 3/8@1 μg | – |
| Ac-D-Nal^1, 4-Cl-D-Phe^2, D-Trp^3, D-Arg^6, Met(S^+Me)^8, D-Ala^10-LHRH.2TFA [Compound 3878] | – | – | 7/8@0.5 | 2.8@1.0 | – |
| Ac-D-Nal^1, 4-Cl-D-Phe^2, D-Trp^3, D-Met(S^+Me)^6, D-Ala^10-LHRH.2TFA [Compound 3879] | – | – | 6/8@0.5 | 0/8@1.0 | AO activity (AOA), in words [2]: high AOA |
| Ac-L-(or D)-Ada-Ala^1, 4-Cl-D-Phe^2, D-Pal^3, D-Cit^6-Lys(iPr)^8, D-Ala^10-LHRH.TFA [Compound 3369] | low histamine release | 93 µg/mL | – | – | AO activity (AOA): rats which ovulate / rats treated ([2]; dose 5 μg per rat): 7/8@5 μg |
